Experimental data: paper PMC5061470, “Promiscuous targeting of bromodomains by bromosporine identifies BET proteins as master regulators of primary transcription response in leukemia” (Science Advances, 2016)

Tests used:
BAZ2A = molecular target: T1, BAZ2A (Homo sapiens, UniProt Q9UIF9); type: binding
T1 construct: Human BRDs were subcloned into bacteria-expressing vectors; made in house
T1 sequence (Q9UIF9 1793-1897 limits assumed): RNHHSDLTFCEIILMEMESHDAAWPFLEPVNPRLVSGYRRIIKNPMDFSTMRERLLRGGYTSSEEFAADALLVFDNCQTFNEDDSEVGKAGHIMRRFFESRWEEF

BAZ2B = molecular target: T2, BAZ2B (Homo sapiens, UniProt Q9UIF8); type: binding; conditions: pH 7.5
T2 construct: Human BRDs were subcloned into bacteria-expressing vectors; made in house

BRD3(1) = BRD3(1) (Homo sapiens, UniProt Q15059); type: binding
BRPF1B = BRPF1B (Homo sapiens, UniProt P55201); assay: biochemical; type: binding
GCN5L2 = GCN5L2 (Homo sapiens, UniProt Q92830); type: binding; conditions: pH 7.5
SMARCA2 = type: binding, human; conditions: pH 7.5
SMARCA4 = SMARCA4 (Homo sapiens, UniProt P51532); type: binding
alpha 1A (h) = alpha 1A (h) (Homo sapiens, UniProt P35348); assay: biochemical; type: binding; conditions: read-out: % Inhibition of Control Specific Binding
alpha 1B (h) = alpha 1B (h) (Homo sapiens, UniProt P35368); assay: biochemical; conditions: read-out: % Inhibition of Control Specific Binding
alpha 2A (h) = alpha 2A (h) (Homo sapiens, UniProt P08913); assay: biochemical; conditions: read-out: % Inhibition of Control Specific Binding
beta 2 (h) = beta 2 (h) (Homo sapiens, UniProt P07550); assay: biochemical; conditions: read-out: % Inhibition of Control Specific Binding
beta 3 (h) = beta 3 (h) (Homo sapiens, UniProt P13945); assay: biochemical; type: binding; conditions: read-out: % Inhibition of Control Specific Binding
AT2 (h) = AT2 (h) (Homo sapiens, UniProt P50052); assay: biochemical; conditions: read-out: % Inhibition of Control Specific Binding
CB1 (h) = CB1 (h) (Homo sapiens, UniProt P21554); assay: biochemical; conditions: read-out: % Inhibition of Control Specific Binding
CB2 (h) = CB2 (h) (Homo sapiens, UniProt P34972); assay: biochemical; conditions: read-out: % Inhibition of Control Specific Binding
BLT1 (LTB4) (h) = BLT1 (LTB4) (h) (Homo sapiens, UniProt Q15722); assay: biochemical; conditions: read-out: % Inhibition of Control Specific Binding
CysLT1 (LTD4) (h) = CysLT1 (LTD4) (h) (Homo sapiens, UniProt Q9Y271); assay: biochemical; conditions: read-out: % Inhibition of Control Specific Binding
MT3 (ML2) = MT3 (ML2) (Mesocricetus auratus, UniProt A0ABM2YAB8); assay: biochemical; type: binding; conditions: read-out: % Inhibition of Control Specific Binding
NK1 (h) = NK1 (h) (Homo sapiens, UniProt P25103); assay: biochemical; conditions: read-out: % Inhibition of Control Specific Binding
[1] = molecular target: N neuronal alpha 4beta 2 (h) (Homo sapiens, UniProt P17787+P43681); assay: biochemical; conditions: read-out: % Inhibition of Control Specific Binding
PAF (h) = PAF (h) (Homo sapiens, UniProt P25105); assay: biochemical; type: binding; conditions: read-out: % Inhibition of Control Specific Binding
5-HT2B (h) = 5-HT2B (h) (Homo sapiens, UniProt P41595); assay: biochemical; type: binding; conditions: read-out: % Inhibition of Control Specific Binding
[2] = system: Ca2+ channel (L, verapamil site) (phenylalkylamine); type: binding
GABA transporter = type: binding
[3] = molecular target: choline transporter (CHT1) (h) (Homo sapiens, UniProt Q9GZV3); assay: biochemical; type: binding; conditions: read-out: % Inhibition of Control Specific Binding
BRD4(2) = BRD4(2) (Homo sapiens, UniProt O60885)
alpha 2B (h) = alpha 2B (h) (Homo sapiens, UniProt P18089); assay: biochemical; conditions: read-out: % Inhibition of Control Specific Binding
glucagon (h) = glucagon (h) (Homo sapiens, UniProt P47871); assay: biochemical; conditions: read-out: % Inhibition of Control Specific Binding
H1 (h) = H1 (h) (Homo sapiens, UniProt P35367); assay: biochemical; conditions: read-out: % Inhibition of Control Specific Binding
MC4 (h) = MC4 (h) (Homo sapiens, UniProt P32245); assay: biochemical; conditions: read-out: % Inhibition of Control Specific Binding
MT1 (ML1A) (h) = MT1 (ML1A) (h) (Homo sapiens, UniProt P48039); assay: biochemical; conditions: read-out: % Inhibition of Control Specific Binding
5-HT1A (h) = 5-HT1A (h) (Homo sapiens, UniProt P08908); assay: biochemical; conditions: read-out: % Inhibition of Control Specific Binding
5-HT3 (h) = 5-HT3 (h) (Homo sapiens, UniProt P46098); assay: biochemical; conditions: read-out: % Inhibition of Control Specific Binding
VPAC1 (VIP1) (h) = VPAC1 (VIP1) (h) (Homo sapiens, UniProt P32241); assay: biochemical; conditions: read-out: % Inhibition of Control Specific Binding
[4] = molecular target: norepinephrine transporter (h) (Homo sapiens, UniProt P23975); assay: biochemical; conditions: read-out: % Inhibition of Control Specific Binding

BRPF1B, sequence (P55201 628-732): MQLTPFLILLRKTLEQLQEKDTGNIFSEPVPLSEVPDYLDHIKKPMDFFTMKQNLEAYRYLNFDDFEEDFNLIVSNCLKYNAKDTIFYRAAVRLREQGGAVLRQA
SMARCA4, sequence (P51532 1453-1564 limits assumed): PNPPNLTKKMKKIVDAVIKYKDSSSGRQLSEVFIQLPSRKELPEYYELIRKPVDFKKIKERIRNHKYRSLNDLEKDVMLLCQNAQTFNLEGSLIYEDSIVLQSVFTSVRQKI
BRD3(1), sequence (Q15059 34-140 limits assumed): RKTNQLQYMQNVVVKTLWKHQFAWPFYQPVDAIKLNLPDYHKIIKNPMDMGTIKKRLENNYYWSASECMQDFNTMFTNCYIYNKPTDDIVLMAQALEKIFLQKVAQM
beta 3 (h), sequence (P13945 whole entry): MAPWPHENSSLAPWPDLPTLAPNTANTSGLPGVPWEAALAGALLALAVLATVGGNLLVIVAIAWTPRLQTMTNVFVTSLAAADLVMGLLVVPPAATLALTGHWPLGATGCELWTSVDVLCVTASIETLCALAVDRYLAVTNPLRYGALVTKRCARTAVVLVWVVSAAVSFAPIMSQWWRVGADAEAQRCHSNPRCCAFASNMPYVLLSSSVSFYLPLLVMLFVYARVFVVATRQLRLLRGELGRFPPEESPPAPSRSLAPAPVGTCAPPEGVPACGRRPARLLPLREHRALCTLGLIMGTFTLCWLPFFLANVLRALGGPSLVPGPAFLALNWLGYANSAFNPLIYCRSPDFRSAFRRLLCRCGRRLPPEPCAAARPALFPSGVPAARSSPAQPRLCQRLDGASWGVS
alpha 2A (h), sequence (P08913 whole entry): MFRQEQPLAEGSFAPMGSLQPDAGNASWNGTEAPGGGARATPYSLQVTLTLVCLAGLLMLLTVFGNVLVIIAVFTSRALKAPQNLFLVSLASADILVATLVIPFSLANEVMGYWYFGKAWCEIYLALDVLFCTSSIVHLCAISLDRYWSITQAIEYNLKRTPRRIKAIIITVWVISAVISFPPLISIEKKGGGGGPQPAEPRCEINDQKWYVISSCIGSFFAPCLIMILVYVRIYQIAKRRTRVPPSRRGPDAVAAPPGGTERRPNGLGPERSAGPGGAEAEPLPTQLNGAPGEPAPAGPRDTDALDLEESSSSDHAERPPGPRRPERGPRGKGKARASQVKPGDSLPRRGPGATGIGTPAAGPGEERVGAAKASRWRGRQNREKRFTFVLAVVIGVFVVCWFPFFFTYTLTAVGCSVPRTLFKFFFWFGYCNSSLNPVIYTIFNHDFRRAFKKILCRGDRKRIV
glucagon (h), sequence (P47871 26-477): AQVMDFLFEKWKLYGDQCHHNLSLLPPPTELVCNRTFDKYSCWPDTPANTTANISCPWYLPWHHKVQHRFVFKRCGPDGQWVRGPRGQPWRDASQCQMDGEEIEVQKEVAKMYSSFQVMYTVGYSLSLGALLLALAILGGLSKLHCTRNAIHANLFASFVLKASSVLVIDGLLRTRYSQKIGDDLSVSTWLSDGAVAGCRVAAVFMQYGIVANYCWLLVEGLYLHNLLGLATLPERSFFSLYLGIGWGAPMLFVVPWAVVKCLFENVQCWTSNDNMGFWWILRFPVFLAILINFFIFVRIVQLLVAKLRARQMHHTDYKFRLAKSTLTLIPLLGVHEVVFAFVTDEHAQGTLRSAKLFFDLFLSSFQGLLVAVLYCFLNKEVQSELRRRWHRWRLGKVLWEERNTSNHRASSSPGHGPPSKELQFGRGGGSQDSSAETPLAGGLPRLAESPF
GCN5L2, sequence (Q92830 728-832): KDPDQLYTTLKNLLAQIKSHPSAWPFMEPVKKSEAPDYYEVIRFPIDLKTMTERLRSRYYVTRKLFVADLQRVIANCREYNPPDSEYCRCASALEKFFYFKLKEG
BLT1 (LTB4) (h), sequence (Q15722 whole entry): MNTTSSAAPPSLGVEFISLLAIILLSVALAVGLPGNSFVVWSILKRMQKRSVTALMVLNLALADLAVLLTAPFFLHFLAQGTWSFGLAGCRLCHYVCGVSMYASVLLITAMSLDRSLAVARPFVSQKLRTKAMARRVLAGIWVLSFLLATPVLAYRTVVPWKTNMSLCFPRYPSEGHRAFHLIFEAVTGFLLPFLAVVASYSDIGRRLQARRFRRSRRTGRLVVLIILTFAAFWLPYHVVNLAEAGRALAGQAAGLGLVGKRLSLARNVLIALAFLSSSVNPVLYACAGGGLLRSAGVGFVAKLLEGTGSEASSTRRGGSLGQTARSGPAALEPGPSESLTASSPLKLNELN
NK1 (h), sequence (P25103 whole entry): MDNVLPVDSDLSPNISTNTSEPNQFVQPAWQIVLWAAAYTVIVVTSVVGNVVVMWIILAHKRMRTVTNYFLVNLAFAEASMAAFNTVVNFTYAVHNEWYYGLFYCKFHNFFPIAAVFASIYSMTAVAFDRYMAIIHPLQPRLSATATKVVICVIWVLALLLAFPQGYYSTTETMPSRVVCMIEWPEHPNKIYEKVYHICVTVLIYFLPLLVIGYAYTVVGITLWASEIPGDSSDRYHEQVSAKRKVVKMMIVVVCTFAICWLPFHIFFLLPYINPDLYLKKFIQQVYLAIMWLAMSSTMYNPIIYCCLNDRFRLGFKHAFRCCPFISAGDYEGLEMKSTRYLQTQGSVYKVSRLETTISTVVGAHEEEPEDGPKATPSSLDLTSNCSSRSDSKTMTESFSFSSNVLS
alpha 1A (h), sequence (P35348 whole entry): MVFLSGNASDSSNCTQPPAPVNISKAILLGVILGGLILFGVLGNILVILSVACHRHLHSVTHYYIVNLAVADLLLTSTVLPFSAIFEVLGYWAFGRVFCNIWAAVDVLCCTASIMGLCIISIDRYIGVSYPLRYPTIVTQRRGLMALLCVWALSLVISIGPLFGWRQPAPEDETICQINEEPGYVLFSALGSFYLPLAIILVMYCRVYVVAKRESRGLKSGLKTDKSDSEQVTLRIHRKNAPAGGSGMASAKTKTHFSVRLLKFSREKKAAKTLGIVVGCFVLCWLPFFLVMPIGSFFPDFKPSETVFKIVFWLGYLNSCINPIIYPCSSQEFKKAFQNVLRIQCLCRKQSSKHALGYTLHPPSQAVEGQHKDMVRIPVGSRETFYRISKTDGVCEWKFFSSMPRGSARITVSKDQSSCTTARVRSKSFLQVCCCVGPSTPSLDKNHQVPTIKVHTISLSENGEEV
5-HT2B (h), sequence (P41595 whole entry): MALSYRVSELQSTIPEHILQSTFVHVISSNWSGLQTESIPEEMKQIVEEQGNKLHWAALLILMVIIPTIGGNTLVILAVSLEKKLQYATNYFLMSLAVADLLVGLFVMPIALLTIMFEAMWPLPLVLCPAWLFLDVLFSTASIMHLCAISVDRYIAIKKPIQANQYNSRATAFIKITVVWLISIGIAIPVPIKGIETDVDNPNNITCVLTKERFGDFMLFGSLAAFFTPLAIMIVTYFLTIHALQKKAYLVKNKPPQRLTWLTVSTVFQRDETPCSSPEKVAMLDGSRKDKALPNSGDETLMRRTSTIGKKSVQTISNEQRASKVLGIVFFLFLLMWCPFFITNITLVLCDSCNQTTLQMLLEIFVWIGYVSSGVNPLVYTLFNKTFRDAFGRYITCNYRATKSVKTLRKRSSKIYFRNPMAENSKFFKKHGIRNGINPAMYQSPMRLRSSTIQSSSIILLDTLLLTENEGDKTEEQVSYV
5-HT1A (h), sequence (P08908 whole entry): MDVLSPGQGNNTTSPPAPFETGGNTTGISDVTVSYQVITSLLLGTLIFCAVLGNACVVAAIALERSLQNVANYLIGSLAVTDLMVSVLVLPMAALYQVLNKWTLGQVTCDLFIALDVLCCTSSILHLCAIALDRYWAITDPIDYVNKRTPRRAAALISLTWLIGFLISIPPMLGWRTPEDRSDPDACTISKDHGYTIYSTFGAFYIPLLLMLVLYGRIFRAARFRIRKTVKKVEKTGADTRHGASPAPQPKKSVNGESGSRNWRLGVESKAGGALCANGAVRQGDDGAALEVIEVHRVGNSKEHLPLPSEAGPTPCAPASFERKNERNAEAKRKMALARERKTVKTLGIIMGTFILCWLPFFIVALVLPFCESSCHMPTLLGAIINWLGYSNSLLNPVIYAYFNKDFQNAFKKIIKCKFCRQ
AT2 (h), sequence (P50052 whole entry): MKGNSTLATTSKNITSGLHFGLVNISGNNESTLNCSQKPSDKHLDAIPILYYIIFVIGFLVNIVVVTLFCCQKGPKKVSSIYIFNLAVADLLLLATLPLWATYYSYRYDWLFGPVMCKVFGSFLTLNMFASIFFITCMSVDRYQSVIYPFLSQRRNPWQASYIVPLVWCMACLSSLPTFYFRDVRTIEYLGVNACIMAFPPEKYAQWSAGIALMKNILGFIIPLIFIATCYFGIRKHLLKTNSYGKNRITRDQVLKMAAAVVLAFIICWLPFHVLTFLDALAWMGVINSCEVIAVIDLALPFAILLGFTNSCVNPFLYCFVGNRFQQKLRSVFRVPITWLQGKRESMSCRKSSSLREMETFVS
choline transporter (CHT1) (h), sequence (Q9GZV3 whole entry): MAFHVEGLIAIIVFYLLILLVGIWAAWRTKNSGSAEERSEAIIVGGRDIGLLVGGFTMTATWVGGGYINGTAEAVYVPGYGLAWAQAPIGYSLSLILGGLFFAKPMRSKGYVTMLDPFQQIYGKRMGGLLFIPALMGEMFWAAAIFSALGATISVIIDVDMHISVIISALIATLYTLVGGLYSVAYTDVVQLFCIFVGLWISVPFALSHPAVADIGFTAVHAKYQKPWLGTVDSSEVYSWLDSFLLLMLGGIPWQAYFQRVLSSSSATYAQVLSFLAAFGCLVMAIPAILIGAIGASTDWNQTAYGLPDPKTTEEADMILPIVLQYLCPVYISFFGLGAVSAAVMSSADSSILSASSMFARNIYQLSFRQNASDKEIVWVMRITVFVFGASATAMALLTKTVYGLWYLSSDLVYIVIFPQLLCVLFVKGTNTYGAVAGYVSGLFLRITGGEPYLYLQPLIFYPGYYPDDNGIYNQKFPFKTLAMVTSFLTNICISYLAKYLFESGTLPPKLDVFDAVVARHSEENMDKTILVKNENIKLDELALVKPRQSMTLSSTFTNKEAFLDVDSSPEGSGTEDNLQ

SMILES: CCOC(=O)Nc1cc(-c2ccc(C)c(NS(C)(=O)=O)c2)nn2c(C)nnc12 [BSP, ethyl (3-methyl-6-(4-methyl-3-(methylsulfonamido)phenyl)-[1,2,4]triazolo[4,3-b]pyridazin-8-yl)carbamate]
- N (BAZ2A): 1.05 ± 0.025
- TΔS (BAZ2A): 4.12 kcal/mol
- ΔG (BAZ2A): -7.16 kcal/mol
- ΔH^obs (BAZ2A): -3.04 ± 0.095 kcal/mol
- KD (BAZ2B): Weak binding
- N (BRD3(1)): 1.00 ± 0.002
- TΔS (BRD3(1)): -0.95 kcal/mol
- ΔG (BRD3(1)): -9.08 kcal/mol
- Kd (BRPF1B): 312 ± 11.2 nM
- N (BRPF1B): 1.00 ± 0.003
- TΔS (BRPF1B): 2.45 kcal/mol
- ΔG (BRPF1B): -8.57 kcal/mol
- ΔH^obs (BRPF1B): -6.12 ± 0.021 kcal/mol
- KD (GCN5L2): Weak binding
- KD (SMARCA2): Weak binding
- N (SMARCA4): 0.99 ± 0.055
- TΔS (SMARCA4): -2.84 kcal/mol
- ΔG (SMARCA4): -6.21 kcal/mol
- ΔH^obs (SMARCA4): -9.05 ± 0.580 kcal/mol
- inhibition at 10 µM (alpha 1A (h)): 7%
- inhibition at 10 µM (alpha 1B (h)): 3%
- inhibition at 10 µM (alpha 2A (h)): 7%
- inhibition at 10 µM (beta 2 (h)): 2%
- inhibition at 10 µM (beta 3 (h)): 11%
- inhibition at 10 µM (AT2 (h)): 2%
- inhibition at 10 µM (CB1 (h)): -34%
- inhibition at 10 µM (CB2 (h)): 12%
- inhibition at 10 µM (BLT1 (LTB4) (h)): 3%
- inhibition at 10 µM (CysLT1 (LTD4) (h)): -20%
- inhibition at 10 µM (MT3 (ML2)): 103%
- inhibition at 10 µM (NK1 (h)): 7%
- inhibition at 10 µM [1]: -7%
- inhibition at 10 µM (PAF (h)): -6%
- inhibition at 10 µM (5-HT2B (h)): 7%
- % Inhibition of Control Specific Binding [2]: -8
- % Inhibition of Control Specific Binding (GABA transporter): 0
- inhibition at 10 µM [3]: 39%
- N (BRD4(2)): 0.94 ± 0.001
- TΔS (BRD4(2)): 3.17 kcal/mol
- ΔG (BRD4(2)): -9.77 kcal/mol
- ΔH^obs (BRD4(2)): -6.60 ± 0.018 kcal/mol
- % Inhibition of Control Specific Binding (AMPA): 11
- inhibition at 10 µM (alpha 2B (h)): 2%
- inhibition at 10 µM (glucagon (h)): -8%
- inhibition at 10 µM (H1 (h)): 1%
- inhibition at 10 µM (MC4 (h)): -23%
- inhibition at 10 µM (MT1 (ML1A) (h)): 14%
- inhibition at 10 µM (5-HT1A (h)): -11%
- inhibition at 10 µM (5-HT3 (h)): 3%
- inhibition at 10 µM (VPAC1 (VIP1) (h)): 0%
- inhibition at 10 µM [4]: -20%
